From patent US4808711A, “Cephalosporin derivatives” (Sankei Pharmaceutical Co., Ltd., priority 1985, dated 1989)
Values after ≈ are worked out from the molar mass of the structure shown. Read-outs that look alike come from different tables or passages of the source.

Columns and labels:
Format in all cases: cell-based
S. marcescens IFO12648 = experiment: MIC, S. marcescens IFO12648; settings: Serratia marcescens, read-out: MIC
Experimental: (§1) The minimum inhibition concentrations (MIC) of the compounds obtained by the present invention were measured according to the standard method of Japanese Chemotherapy Association.

P. aeruginosa ATCC9721 = experiment: MIC, P. aeruginosa ATCC9721; settings: Pseudomonas aeruginosa; P. aeruginosa ATCC9721; read-out: MIC
Experimental: as §1

S. aureus 209P JC-1 = experiment: MIC, S. aureus 209P JC-1; settings: Staphylococcus aureus; S. aureus 209P JC-1; read-out: MIC
Experimental: as §1

E. coli NIHJ JC-2 = experiment: MIC, E. coli NIHJ JC-2; settings: Escherichia coli, NIHJJC2, read-out: MIC
Experimental: as §1

P. rettgeri ATCC14505 = experiment: MIC, P. rettgeri ATCC14505; settings: Providencia rettgeri, read-out: MIC
Experimental: as §1

S. epidermidis ATCC14990 = experiment: MIC, S. epidermidis ATCC14990; settings: Staphylococcus epidermidis, read-out: MIC
Experimental: as §1

P. mirabilis IFO3849 = experiment: MIC, P. mirabilis IFO3849; settings: Proteus mirabilis, read-out: MIC
Experimental: as §1

S. aureus TASAKI = experiment: MIC, S. aureus TASAKI; settings: Staphylococcus aureus
Experimental: as §1

P. putida ATCC12633 = experiment: MIC, P. putida ATCC12633; settings: Pseudomonas putida
Experimental: as §1

E. cloacae ATCC13047 = experiment: MIC, E. cloacae ATCC13047; settings: Enterobacter cloacae
Experimental: as §1

S. newport 563 = experiment: MIC, S. newport 563; settings: Salmonella enterica, read-out: MIC
Experimental: as §1

C. freundii IFO12681 = experiment: MIC, C. freundii IFO12681; settings: Citrobacter freundii, read-out: MIC
Experimental: as §1

P. cepacia ATCC25416 = experiment: MIC, P. cepacia ATCC25416; settings: Burkholderia cepacia, read-out: MIC
Experimental: as §1

S. aureus Smith = experiment: MIC, S. aureus Smith; settings: Staphylococcus aureus, read-out: MIC
Experimental: as §1

S. boyadii CDC 2064-59 = experiment: MIC, S. boyadii CDC 2064-59
Experimental: as §1

[1] = tested on: S. flexneri 2a CDC 4807-62; experiment: MIC, S. flexneri 2a CDC 4807-62; settings: Shigella flexneri, read-out: MIC
Experimental: as §1

S. typhimurium ATCC13311 = experiment: MIC, S. typhimurium ATCC13311; settings: Salmonella enterica, read-out: MIC
Experimental: as §1

S. flexneri Y NCTC 9730 = experiment: MIC, S. flexneri Y NCTC 9730; settings: Shigella flexneri, NCTC9730, read-out: MIC
Experimental: as §1

S. typhi 1099-77 = experiment: MIC, S. typhi 1099-77; settings: Salmonella enterica
Experimental: as §1

S. paratyphi B = experiment: MIC, S. paratyphi B; settings: Salmonella enterica, PARATYPHI
Experimental: as §1

P. maltophilia ATCC13637 = experiment: MIC, P. maltophilia ATCC13637; settings: Stenotrophomonas maltophilia
Experimental: as §1

S. sonnei SH72-415 = experiment: MIC, S. sonnei SH72-415; settings: Shigella sonnei, SH72415, read-out: MIC
Experimental: as §1

S. paratyphi A 144-12-93 = experiment: MIC, S. paratyphi A 144-12-93; settings: Salmonella enterica, PARATYPHI
Experimental: as §1

S. dysenteriae 4379-60 = experiment: MIC, S. dysenteriae 4379-60; settings: Shigella dysenteriae, 437960
Experimental: as §1

S. aureus ATCC25923 = experiment: MIC, S. aureus ATCC25923; settings: Staphylococcus aureus; S. aureus ATCC25923; read-out: MIC
Experimental: as §1

S. typhimurium IFO 12529 = experiment: MIC, S. typhimurium IFO 12529; settings: Salmonella enterica, read-out: MIC
Experimental: as §1

K. pneumoniae ATCC27736 = experiment: MIC, K. pneumoniae ATCC27736; settings: Klebsiella pneumoniae, read-out: MIC
Experimental: as §1

E. coli ATCC25922 = experiment: MIC, E. coli ATCC25922; settings: Escherichia coli, read-out: MIC
Experimental: as §1

B. subtilis ATCC6633 = experiment: MIC, B. subtilis ATCC6633; settings: Bacillus subtilis; B. subtilis ATCC6633; read-out: MIC
Experimental: as §1

S. anatum 677-69 = experiment: MIC, S. anatum 677-69; settings: Salmonella enterica, 67769, read-out: MIC
Experimental: as §1

S. paratyphi C 33-76 = experiment: MIC, S. paratyphi C 33-76; settings: Salmonella enterica, PARATYPHI
Experimental: as §1

P. vulgaris ATCC6398 = experiment: MIC, P. vulgaris ATCC6398; settings: Proteus vulgaris, read-out: MIC
Experimental: as §1

S. faecalis IFO3826 = experiment: MIC, S. faecalis IFO3826; settings: Enterococcus faecalis, read-out: MIC
Experimental: as §1

P. vulgaris ATCC6380 = experiment: MIC, P. vulgaris ATCC6380; settings: Proteus vulgaris, read-out: MIC
Experimental: as §1

P. fluorescens ATCC13525 = experiment: MIC, P. fluorescens ATCC13525; settings: Pseudomonas fluorescens, read-out: MIC
Experimental: as §1

| SMILES | MIC (S. marcescens IFO12648) | MIC (P. aeruginosa ATCC9721) | MIC (S. aureus 209P JC-1) | MIC (E. coli NIHJ JC-2) | MIC (P. rettgeri ATCC14505) | MIC (S. epidermidis ATCC14990) | MIC (P. mirabilis IFO3849) | MIC (P. putida ATCC12633) | MIC (E. cloacae ATCC13047) | MIC (S. newport 563) | MIC (C. freundii IFO12681) | MIC (P. cepacia ATCC25416) | MIC (S. aureus Smith) | MIC (S. boyadii CDC 2064-59) | MIC [1] | MIC (S. typhimurium ATCC13311) | MIC (S. flexneri Y NCTC 9730) | MIC (S. paratyphi B) | MIC (P. maltophilia ATCC13637) | MIC (S. sonnei SH72-415) | other results |
| --- | --- | --- | --- | --- | --- | --- | --- | --- | --- | --- | --- | --- | --- | --- | --- | --- | --- | --- | --- | --- | --- |
| CN(C)CCn1nnnc1SCC1=C(C(=O)O)N2C(=O)[C@@H](NC(=O)Cc3csc(N)n3)[C@H]2SC1 [CTM, cephothiam] | 6.25 µg/mL (≈ 11.9 µM) | > 100 µg/mL | 0.2 µg/mL (≈ 0.38 µM) | 0.2 µg/mL (≈ 0.38 µM) | 3.13 µg/mL (≈ 5.95 µM) | 0.39 µg/mL (≈ 0.742 µM) | 0.78 µg/mL (≈ 1.48 µM) | > 100 µg/mL | 50 µg/mL (≈ 95.1 µM) | 0.39 µg/mL (≈ 0.742 µM) | 3.13 µg/mL (≈ 5.95 µM) | 0.39 µg/mL (≈ 0.742 µM) | 0.39 µg/mL (≈ 0.742 µM) | 0.39 µg/mL (≈ 0.742 µM) | 0.1 µg/mL (≈ 0.19 µM) | 0.1 µg/mL (≈ 0.19 µM) | 0.78 µg/mL (≈ 1.48 µM) | 0.2 µg/mL (≈ 0.38 µM) | > 100 µg/mL | 0.2 µg/mL (≈ 0.38 µM) | MIC (S. aureus TASAKI; S. aureus TASAKI, standard method of Japanese Chemotherapy Association, read-out: MIC): 0.39 µg/mL (≈ 0.742 µM); MIC (S. typhi 1099-77; TYPHI): 0.1 µg/mL (≈ 0.19 µM); MIC (S. paratyphi A 144-12-93): 0.39 µg/mL (≈ 0.742 µM); MIC (S. dysenteriae 4379-60): 0.05 µg/mL (≈ 0.0951 µM); MIC (S. aureus ATCC25923): 0.39 µg/mL (≈ 0.742 µM); MIC (S. typhimurium IFO 12529): 0.2 µg/mL (≈ 0.38 µM); MIC (K. pneumoniae ATCC27736): 0.1 µg/mL (≈ 0.19 µM); MIC (E. coli ATCC25922): 0.2 µg/mL (≈ 0.38 µM); MIC (B. subtilis ATCC6633): 0.39 µg/mL (≈ 0.742 µM); MIC (S. anatum 677-69): 0.2 µg/mL (≈ 0.38 µM); MIC (S. paratyphi C 33-76): 0.05 µg/mL (≈ 0.0951 µM); MIC (P. vulgaris ATCC6398): > 100 µg/mL; MIC (S. faecalis IFO3826): > 100 µg/mL; MIC (P. vulgaris ATCC6380): > 100 µg/mL |
| CO/N=C(\C(=O)N[C@@H]1C(=O)N2C(C(=O)O)=C(COC(C)=O)CS[C@H]12)c1csc(N)n1 [CTX, cephotaxim] | 0.2 µg/mL (≈ 0.439 µM) | 3.13 µg/mL (≈ 6.87 µM) | 0.39 µg/mL (≈ 0.856 µM) | 0.1 µg/mL (≈ 0.22 µM) | 0.1 µg/mL (≈ 0.22 µM) | 0.78 µg/mL (≈ 1.71 µM) | 0.05 µg/mL (≈ 0.11 µM) | 50 µg/mL (≈ 110 µM) | 3.13 µg/mL (≈ 6.87 µM) | 0.1 µg/mL (≈ 0.22 µM) | 0.1 µg/mL (≈ 0.22 µM) | 0.78 µg/mL (≈ 1.71 µM) | 3.13 µg/mL (≈ 6.87 µM) | 0.39 µg/mL (≈ 0.856 µM) | 0.025 µg/mL (≈ 0.0549 µM) | 0.05 µg/mL (≈ 0.11 µM) | 0.05 µg/mL (≈ 0.11 µM) | 0.1 µg/mL (≈ 0.22 µM) | 50 µg/mL (≈ 110 µM) | 0.05 µg/mL (≈ 0.11 µM) | MIC (S. aureus TASAKI): 1.56 µg/mL (≈ 3.43 µM); MIC (P. fluorescens ATCC13525): 25 µg/mL (≈ 54.9 µM); MIC (S. typhi 1099-77; S. typhi 1099-77, read-out: MIC): 0.1 µg/mL (≈ 0.22 µM); MIC (S. paratyphi A 144-12-93): 0.2 µg/mL (≈ 0.439 µM); MIC (S. dysenteriae 4379-60): 0.012 µg/mL (≈ 0.0263 µM); MIC (S. aureus ATCC25923): 0.78 µg/mL (≈ 1.71 µM); MIC (S. typhimurium IFO 12529): 0.2 µg/mL (≈ 0.439 µM); MIC (K. pneumoniae ATCC27736): 0.1 µg/mL (≈ 0.22 µM); MIC (E. coli ATCC25922): 0.1 µg/mL (≈ 0.22 µM); MIC (B. subtilis ATCC6633): 0.39 µg/mL (≈ 0.856 µM); MIC (S. anatum 677-69): 0.1 µg/mL (≈ 0.22 µM); MIC (S. paratyphi C 33-76): ≤ 0.006 µg/mL; MIC (P. vulgaris ATCC6398): ≤ 0.006 µg/mL; MIC (S. faecalis IFO3826): > 100 µg/mL; MIC (P. vulgaris ATCC6380): 0.05 µg/mL (≈ 0.11 µM) |
